Assay results as given in PubChem BioAssay (NCI).
Values joined by “and” are separate entries in the source; they are usually repeats but may differ in a detail not shown here. Equal values may be shown once.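 Method: 48-hour compound exposure of cells in 96-well plates, five concentrations, linear interpolation of endpoints. Abbreviation: GI50, concentration required for 50% inhibition of growth. Definition used: TGI = concentration required for complete inhibition of growth.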

Columns and labels:
Assay in all cases: NCI tumour cell line growth inhibition, 48 h
A549 NSCLC = test system: A549 NSCLC
HCC-2998 colon = test system: HCC-2998 colon
HOP-92 NSCLC = test system: HOP-92 NSCLC
NCI-H23 lung = test system: NCI-H23 lung
NCI-H522 lung = test system: NCI-H522 lung
NCI/ADR-RES ovarian = test system: NCI/ADR-RES ovarian
SF-295 CNS = test system: SF-295 CNS
SK-MEL-2 melanoma = test system: SK-MEL-2 melanoma
TK-10 renal = test system: TK-10 renal
BT-549 breast = test system: BT-549 breast

Compound	GI50 (A549 NSCLC)	TGI (A549 NSCLC)	GI50 (HCC-2998 colon)	TGI (HCC-2998 colon)	GI50 (HOP-92 NSCLC)	TGI (HOP-92 NSCLC)	GI50 (NCI-H23 lung)	TGI (NCI-H23 lung)	GI50 (NCI-H522 lung)	TGI (NCI-H522 lung)	GI50 (NCI/ADR-RES ovarian)	TGI (NCI/ADR-RES ovarian)	GI50 (SF-295 CNS)	TGI (SF-295 CNS)	GI50 (SK-MEL-2 melanoma)	TGI (SK-MEL-2 melanoma)	GI50 (TK-10 renal)	TGI (TK-10 renal)	TGI (BT-549 breast)	GI50 (BT-549 breast)
CN1c2ccccc2C(C)(C)C12C=Cc1cc(O)ccc1O2 (configuration not stated)	4.46 µM	19.9 µM	4.22 µM	9.47 µM	1810 nM	5.88 µM	2970 nM	13.8 µM	3.6 µM	24.9 µM	1.96 µM	7.14 µM	2710 nM	12.8 µM	3.05 µM	11.5 µM	2.94 µM	9.63 µM		
CCc1cccc(C(C)C)c1N1C(=O)C(=O)C(c2nc3ccccc3s2)C(=O)C1=O		> 50 µM		> 50 µM		> 50 µM		> 50 µM		48.6 µM				> 50 µM		> 50 µM		> 50 µM		
C1CCN(c2nc(=[N+]3CCCCC3)ss2)CC1		> 100 µM		> 100 µM		> 100 µM		> 100 µM		> 100 µM				> 100 µM		> 100 µM		> 100 µM		
O=C(Nc1nc2ncn(CCNCc3ccccc3)c2c(=O)[nH]1)c1ccccc1		> 100 µM		> 100 µM		> 100 µM				> 100 µM				> 100 µM		> 100 µM		> 100 µM		
COC(=O)CCCC(=O)O		> 100 µM				> 100 µM		> 100 µM		> 100 µM		> 100 µM		> 100 µM		> 100 µM		> 100 µM	> 100 µM	
COc1ccc2c(c1)n([O-])c1ccccc1[n+]2=O		> 100 µM and 44.7 µM		> 100 µM		> 100 µM		> 100 µM and 91.4 µM		53.4 µM and 32.1 µM		> 100 µM and 97.9 µM		> 100 µM and 48.6 µM		74.7 µM and 54.5 µM		> 100 µM		
CC1C[C@@H]2C(=O)NC(=O)[C@@H]2c2c1c1ccccc1n2C (some centres not stated)		> 100 µM		> 100 µM		> 100 µM		> 100 µM		> 100 µM				> 100 µM		> 100 µM		> 100 µM		
COc1cc2c(cc1C)NC(=O)/C2=C\c1cccc(Oc2ccccc2)c1	20.6 µM	> 100 µM	11.6 µM	24.4 µM			13600 nM	28.3 µM	13.5 µM	34.4 µM	12.9 µM	32.4 µM	16800 nM	31.8 µM	20.1 µM	47.1 µM	23.3 µM	50.6 µM	27.9 µM	12.8 µM
O=C(Cn1ccnc1[N+](=O)[O-])c1ccc(F)cc1		> 100 µM				> 100 µM		> 100 µM		> 100 µM				> 100 µM		> 100 µM		> 100 µM		
O=[N+]([O-])c1cccc(C2ON2C2CCCCC2)c1 (configuration not stated)		84.5 µM		30.9 µM		89.7 µM		45.1 µM		33.5 µM				> 100 µM		62.8 µM		77 µM		
CC(C)(C)c1cc2c3c(c1)C(C(F)(F)F)(C(F)(F)F)O[Te]3(C)OC2(C(F)(F)F)C(F)(F)F		> 100 µM		> 100 µM				> 100 µM		> 100 µM				> 100 µM		> 100 µM		> 100 µM		
NCCCNCCCCN(CCCN)/[N+]([O-])=N\O		> 100 µM		> 100 µM		> 100 µM		> 100 µM						> 100 µM		> 100 µM				
S=c1cc(S)sc2c1c(=S)sc1nc3ccccn3c(=S)c12		> 100 µM		> 100 µM		> 100 µM		> 100 µM						> 100 µM		> 100 µM		> 100 µM		
C[C@]1(CO)CCC[C@@]2(C)C1CC[C@H]1CC3C[C@]12CC[C@]3(C)O (some centres not stated)		> 100 µM		> 100 µM		> 100 µM		> 100 µM		31.1 µM				> 100 µM				> 100 µM		
Clc1ccc(C2SCc3nc4ccccc4n32)cc1Cl (configuration not stated)		32.6 µM				27.4 µM		27.5 µM		25 µM				24.2 µM		35.5 µM		25.9 µM		
O=CC[C@H]1CCc2ccccc2C12CCC(=O)CC2		> 100 µM		> 100 µM		> 100 µM				> 100 µM				> 100 µM		> 100 µM				
O=C1c2ccccc2C(=O)c2c1ccc(C1C(=O)c3ccccc3C1=O)c2-c1c(C2C(=O)c3ccccc3C2=O)ccc2c1C(=O)c1ccccc1C2=O		> 100 µM				> 100 µM				> 100 µM		> 100 µM		> 100 µM		> 100 µM		> 100 µM	> 100 µM	
CCCCCCCCCc1cccc(N2C(N)=NC(N)=NC2(C)C)c1		4.26 µM				> 100 µM		0.277 µM				24.9 µM		74.6 µM		4.65 µM		1.48 µM	3.86 µM	
CCc1cccc(C(C)C)c1NC(=O)C(=O)C(CC(=O)Nc1ccc(Cl)c(Cl)c1)C(=O)OC (configuration not stated)		> 100 µM		> 100 µM		> 100 µM		> 100 µM		> 100 µM				> 100 µM		> 100 µM		> 100 µM		
C1=CC=C2NCCCNC3=CC=CC=CC3=NCCCN=C2C=C1		> 100 µM		> 100 µM		> 100 µM								> 100 µM		> 100 µM		> 100 µM		
COc1cc(OC)c(C2CC=Cc3c(OC)cc(OC)c(OC)c32)cc1OC (configuration not stated)		> 100 µM		> 100 µM		> 100 µM		> 100 µM						> 100 µM		> 100 µM		> 100 µM		
O=C(CC1(O)C(=O)Nc2c(Cl)cc(Cl)cc21)c1cccc2ccccc12 (configuration not stated)		29.8 µM						32.8 µM		28.9 µM				29.2 µM		32.6 µM		27.3 µM		
COCCCNC(=O)CC(=O)NCCCOC		> 100 µM		> 100 µM		> 100 µM		> 100 µM		> 100 µM				> 100 µM		> 100 µM		> 100 µM		
Cc1cccc2c(=O)c3c(sc12)c(NCCNCCO)nc1ccccc13	1.47 µM	3.19 µM	1.55 µM	3.11 µM	1170 nM	3.05 µM	1580 nM	3.04 µM	1.63 µM	3.54 µM			1730 nM	3.21 µM	1.78 µM	3.44 µM			3.35 µM	1.58 µM
